Entries after “also recorded” stand apart in the source; their conditions may differ.
Legend:
preintegration complexes = assay: Circularization mediated by partially purified preintegration complexes; format: biochemical, HIV-1; details: for circular DNA formed by preintegration complexes: 37° C., 45 min
Experimental: Viral preintegration complexes were partially purified from cytoplasmic extracts by Sephacryl S400 gel filtration chromatography. Cytoplasmic extracts (0.8 ml) were loaded onto a 22-ml Sephacryl S400 (Pharmacia) column, 28 cm in height, equilibrated in buffer K containing 0.5% Triton X-100 at 4° C. Fractions (0.5 ml) were collected at a flow rate of approximately 0.2 ml/min.
The linear viral DNA present in cytoplasmic extracts is a part of the nucleoprotein preintegration complex that can be separated from the bulk of cellular proteins by gel filtration chromatography [Farnet and Haseltine, J. Virol., 65: 1910-1915 (1991)]. Preintegration complexes were partially purified by Sephacryl S400 column chromatography and tested for the ability to mediate the circularization of viral DNA. Cytoplasmic extracts (1 ml, vol) were fractionated by Sephacryl S-400 gel filtration chromatography as previously described. The void volume fractions of the column, containing the peak of viral DNA, were pooled (total volume, 1.5 ml) and incubated as follows with the results shown in FIG. 20. Lane 1: column fractions were incubated at 37° C. for 45 minutes; lane 2: linear .phi.X174 DNA was added to column fractions to a final concentrations of 650 ng/ml and incubated at 37° C. for 45 minutes; lane 3: ATPγS was added to column fractions and incubated at 37° C. for 45 minutes; lane 4: same as lane 3, except that an equal volume of cytoplasmic extract from uninfected SupT1 cells was added prior to incubation; lane 5: ATP was added to column fractions to a final concentration of 1 mM and incubated at 37° C. for 45 minutes; lane 6: same as lane 5, except that an equal volume of cytoplasmic extract from uninfected SupT1 cells was added prior to incubation. […] Lane 1: products of the reaction shown in FIG. 20, lane 4, digested with SalI and PstI; lane 2: products of the reaction shown in FIG. 20, lane 5, digested with SalI and PstI; lane 3: products of the reaction shown in FIG. 20, lane 6, digested with SalI and PstI. […] The formation of all types of circular produts was dependent upon the addition of ATP, as viral DNA in column fractions remained linear during incubation at 37° C. in the absence of added ATP (FIG. 20, lane 1), regardless of the addition of uninfected SupT1 cell extracts.

[1] = test system: viral DNA (circularization versus integration into .phi.X174 target DNA); assay: Circularization versus integration (competition) in cytoplasmic extracts from infected cells; format: biochemical, HIV-1
Experimental: Circularization of the linear viral DNA present in cytoplasmic extracts was competitive with integration into heterologous DNA targets (FIG. 28). In FIG. 28, cytoplasmic extracts from infected cells were incubated at 37° C. as follows: Lane 1; incubation with 10 μg/ml .phi.X174 DNA for 45 minutes, lane 2, incubation with 1 mM ATP for 45 minutes; lane 3, incubation with […] .phi.X174 DNA and 1 mM ATP for 45 minutes; lane 4, incubation with 10 μg/ml .phi.X174 DNA for 45 minutes, followed by incubation with 1 mM ATP for 45 minutes; lane 5, incubation with 1 mM ATP for 45 minutes, followed by incubation with 10 μg/ml .phi.X174 DNA for 45 minutes; lane 6, incubation with nothing added for 45 minutes, followed by incubation with 10 μg/ml .phi.X174 DNA for 45 minutes. In FIG. 29, lanes 1-6, cytoplasmic extracts from infected cells were incubated at 37° C. for 45 minutes in the presence of 1 mM ATP and .phi.X174 DNA at a concentration of 0 μg/ml (lane 1), 0.3 μg/ml (lane 2), 0.8 μg/ml (lane 3), 1.6 μg/ml (lane 4), 3.2 μg/ml (lane 5), or 6.4 μg/ml (lane 6). Lane 7, extract incubated with 6.4 μg/ml .phi.X174 DNA for 45 minutes in the absence of added ATP. In FIG. 30, cytoplasmic extracts from infected cells were incubated at 37° C. for 60 minutes with nothing added (lane 1), with 6.4 μg/ml .phi.X174 DNA and 1 mM ATPγS (lane 2), or with 1 mM […] (lane 3). […]

SMILES	1-LTR circle formation by preintegration complexes (preintegration complexes; 1 mM ATP, plus cytoplasmic extract from uninfected SupT1 cells)	2-LTR junction fragment from preintegration complexes (preintegration complexes; 1 mM ATP, plus uninfected SupT1 cell extract)	circular DNA formed by preintegration complexes (preintegration complexes; 1 mM, column fractions)	circular or integrated product ([1]; ATP (1 mM) and target DNA together, versus either alone, 45 min)	integration of viral DNA into target DNA ([1]; preincubation with 1 mM ATP for 45 min prior to target DNA)	circular DNA formed by preintegration complexes (preintegration complexes; in presence and absence of uninfected cell extracts)
Nc1ncnc2c1ncn2[C@@H]1O[C@H](COP(=O)(O)OP(=O)(O)OP(=O)(O)O)[C@@H](O)[C@H]1O [ATP, adenosine triphosphate]	restored the ability to form 1-LTR circles	a small amount of new 2-LTR junction fragment was also detected	formation of only the 2-LTR circular DNA form	the amount of circular or integrated product produced was reduced	integration of viral DNA into target DNA was prevented; also recorded: unable to integrate during a subsequent incubation with target DNA	–
Nc1ncnc2c1ncn2[C@@H]1O[C@H](COP(=O)(O)OP(=O)(O)OP(O)(O)=S)[C@@H](O)[C@H]1O [ATPγS]	–	–	–	–	–	exclusive formation of autointegration 2-LTR circles

— patent US5759768A, “Assays for factors affecting circularization of DNA, assays for factors affecting DNA integration, factors, and uses thereof” (priority 1995, dated 1998)
